Results reported in ChEMBL document CHEMBL4507288 (2021).

Assays:
[1] = biological target: Sigma non-opioid intracellular receptor 1 (Homo sapiens, UniProt Q99720); test: GPCRScan assay: inhibition of Sigma 1; parameters: radioligand conc. used [nm] 4.0 – 5.0, parental cells HEKT
[2] = biological target: Kappa-type opioid receptor (Homo sapiens, UniProt P41145); test: GPCRScan assay: inhibition of KOR; parameters: radioligand conc. used [nm] 0.6 – 1.2, parental cells stable HEK
[3] = biological target: 5-hydroxytryptamine receptor 1A (Homo sapiens, UniProt P08908); test: GPCRScan assay: inhibition of 5-HT1A; parameters: radioligand conc. used [nm] 0.5 – 1.0, parental cells stable CHO
[4] = biological target: Sodium-dependent dopamine transporter (Homo sapiens, UniProt Q01959); test: GPCRScan assay: inhibition of DAT; parameters: radioligand conc. used [nm] 3.6 – 16.0, parental cells stable HEK
Chain of Sodium-dependent dopamine transporter (Q01959 whole entry): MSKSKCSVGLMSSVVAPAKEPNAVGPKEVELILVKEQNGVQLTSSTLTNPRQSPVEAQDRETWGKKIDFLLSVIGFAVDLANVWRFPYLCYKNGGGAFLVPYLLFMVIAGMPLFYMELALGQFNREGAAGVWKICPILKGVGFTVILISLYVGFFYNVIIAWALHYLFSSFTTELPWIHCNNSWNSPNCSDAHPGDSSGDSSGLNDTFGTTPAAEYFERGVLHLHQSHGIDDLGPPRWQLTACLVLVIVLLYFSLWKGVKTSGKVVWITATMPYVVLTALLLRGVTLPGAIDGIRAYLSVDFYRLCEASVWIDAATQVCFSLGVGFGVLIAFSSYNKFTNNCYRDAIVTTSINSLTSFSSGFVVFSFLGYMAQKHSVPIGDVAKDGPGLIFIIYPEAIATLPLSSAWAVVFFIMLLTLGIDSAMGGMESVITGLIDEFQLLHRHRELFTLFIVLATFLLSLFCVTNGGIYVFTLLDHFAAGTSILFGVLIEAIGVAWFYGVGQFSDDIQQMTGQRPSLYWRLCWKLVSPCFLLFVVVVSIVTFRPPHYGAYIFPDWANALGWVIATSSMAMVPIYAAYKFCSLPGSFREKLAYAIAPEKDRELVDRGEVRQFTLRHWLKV

[5] = biological target: Serine/threonine-protein kinase BRSK2 (Homo sapiens) (UniProt Q8IWQ3); conditions: Compound concentration 1000.0 nM
[6] = biological target: Cyclin-dependent kinase-like 1 (Homo sapiens) (UniProt Q00532); conditions: Compound concentration 1000.0 nM
Chain of Cyclin-dependent kinase-like 1 (Homo sapiens) (Q00532 whole entry): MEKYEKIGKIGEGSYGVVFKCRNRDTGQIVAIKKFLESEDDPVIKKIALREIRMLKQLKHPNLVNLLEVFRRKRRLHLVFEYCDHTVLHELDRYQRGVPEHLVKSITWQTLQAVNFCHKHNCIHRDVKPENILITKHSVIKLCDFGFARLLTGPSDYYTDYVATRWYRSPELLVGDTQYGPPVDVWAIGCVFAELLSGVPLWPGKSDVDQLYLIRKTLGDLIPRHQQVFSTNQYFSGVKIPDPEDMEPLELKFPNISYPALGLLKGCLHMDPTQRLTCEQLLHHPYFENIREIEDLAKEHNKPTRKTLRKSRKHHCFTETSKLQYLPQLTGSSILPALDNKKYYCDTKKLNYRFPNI

[7] = biological target: MAP kinase-activated protein kinase 2 (Homo sapiens) (UniProt P49137); conditions: Compound concentration 1000.0 nM
Chain of MAP kinase-activated protein kinase 2 (Homo sapiens) (P49137 whole entry, looked up): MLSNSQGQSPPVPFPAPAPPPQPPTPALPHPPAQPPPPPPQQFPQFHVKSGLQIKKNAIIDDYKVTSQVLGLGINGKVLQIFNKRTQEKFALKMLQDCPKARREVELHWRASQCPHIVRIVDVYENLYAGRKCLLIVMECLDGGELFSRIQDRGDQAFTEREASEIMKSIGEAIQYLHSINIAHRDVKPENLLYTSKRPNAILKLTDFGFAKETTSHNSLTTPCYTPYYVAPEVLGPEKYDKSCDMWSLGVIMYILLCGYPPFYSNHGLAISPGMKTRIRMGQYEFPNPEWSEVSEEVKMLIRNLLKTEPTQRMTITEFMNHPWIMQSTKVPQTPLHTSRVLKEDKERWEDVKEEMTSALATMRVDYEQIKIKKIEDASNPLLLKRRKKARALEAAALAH

[8] = biological target: Dual specificity mitogen-activated protein kinase kinase 2 (Homo sapiens) (UniProt P36507); conditions: Compound concentration 1000.0 nM
[9] = biological target: Homeodomain-interacting protein kinase 2 (Homo sapiens) (UniProt Q9H2X6); conditions: Compound concentration 1000.0 nM
[10] = test system: Receptor-type tyrosine-protein kinase FLT3 (Homo sapiens), P36888 [UNDEFINED MUTATION]; conditions: Compound concentration 1000.0 nM
[11] = biological target: Dual specificity protein kinase TTK (Homo sapiens) (UniProt P33981); conditions: Compound concentration 1000.0 nM
Chain of Dual specificity protein kinase TTK (Homo sapiens) (P33981 whole entry): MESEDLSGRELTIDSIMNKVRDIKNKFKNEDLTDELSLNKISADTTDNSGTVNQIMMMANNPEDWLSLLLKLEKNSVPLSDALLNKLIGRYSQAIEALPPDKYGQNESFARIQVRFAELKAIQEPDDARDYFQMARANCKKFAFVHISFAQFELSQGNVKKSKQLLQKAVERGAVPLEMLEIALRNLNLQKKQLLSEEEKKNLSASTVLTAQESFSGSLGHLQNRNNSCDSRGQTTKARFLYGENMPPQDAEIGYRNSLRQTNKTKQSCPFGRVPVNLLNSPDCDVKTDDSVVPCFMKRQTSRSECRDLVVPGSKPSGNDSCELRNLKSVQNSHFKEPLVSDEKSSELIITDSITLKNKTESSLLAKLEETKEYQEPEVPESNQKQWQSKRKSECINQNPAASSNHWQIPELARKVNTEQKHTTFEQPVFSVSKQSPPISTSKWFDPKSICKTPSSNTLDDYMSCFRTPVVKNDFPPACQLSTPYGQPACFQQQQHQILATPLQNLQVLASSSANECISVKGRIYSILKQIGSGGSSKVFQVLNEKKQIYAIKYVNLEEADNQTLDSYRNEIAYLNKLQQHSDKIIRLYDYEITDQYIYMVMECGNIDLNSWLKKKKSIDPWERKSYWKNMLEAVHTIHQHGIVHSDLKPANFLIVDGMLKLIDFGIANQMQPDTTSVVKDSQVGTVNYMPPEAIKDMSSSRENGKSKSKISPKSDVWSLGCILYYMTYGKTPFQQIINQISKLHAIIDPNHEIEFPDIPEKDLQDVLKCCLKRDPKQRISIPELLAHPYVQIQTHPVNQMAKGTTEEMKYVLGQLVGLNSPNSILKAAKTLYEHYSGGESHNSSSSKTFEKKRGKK

[12] = biological target: Serine/threonine-protein kinase RIO2 (Homo sapiens) (UniProt Q9BVS4); conditions: Compound concentration 1000.0 nM
[13] = biological target: Leukocyte tyrosine kinase receptor (Homo sapiens) (UniProt P29376); conditions: Compound concentration 1000.0 nM
[14] = biological target: Serine/threonine-protein kinase Chk1 (Homo sapiens) (UniProt O14757); conditions: Compound concentration 1000.0 nM
[15] = biological target: Ribosomal protein S6 kinase alpha-6 (Homo sapiens) (UniProt Q9UK32); conditions: Compound concentration 1000.0 nM
[16] = test system: Tyrosine-protein kinase ABL1 (Homo sapiens), P00519 [F317I]; conditions: Compound concentration 1000.0 nM
[17] = test system: Receptor-type tyrosine-protein kinase FLT3 (Homo sapiens), P36888 [D835H]; conditions: Compound concentration 1000.0 nM
[18] = biological target: Uncharacterized serine/threonine-protein kinase SBK3 (Homo sapiens) (UniProt P0C264); conditions: Compound concentration 1000.0 nM
[19] = test system: Receptor-type tyrosine-protein kinase FLT3 (Homo sapiens), P36888 [UNDEFINED MUTATION]; conditions: Compound concentration 1000.0 nM; remark: listed apart in the source
[20] = test system: Epidermal growth factor receptor (Homo sapiens), P00533 [L858R,T790M]; conditions: Compound concentration 1000.0 nM
[21] = biological target: Cyclin-dependent kinase 15 (Homo sapiens) (UniProt Q96Q40); conditions: Compound concentration 1000.0 nM
Chain of Cyclin-dependent kinase 15 (Homo sapiens) (Q96Q40 whole entry): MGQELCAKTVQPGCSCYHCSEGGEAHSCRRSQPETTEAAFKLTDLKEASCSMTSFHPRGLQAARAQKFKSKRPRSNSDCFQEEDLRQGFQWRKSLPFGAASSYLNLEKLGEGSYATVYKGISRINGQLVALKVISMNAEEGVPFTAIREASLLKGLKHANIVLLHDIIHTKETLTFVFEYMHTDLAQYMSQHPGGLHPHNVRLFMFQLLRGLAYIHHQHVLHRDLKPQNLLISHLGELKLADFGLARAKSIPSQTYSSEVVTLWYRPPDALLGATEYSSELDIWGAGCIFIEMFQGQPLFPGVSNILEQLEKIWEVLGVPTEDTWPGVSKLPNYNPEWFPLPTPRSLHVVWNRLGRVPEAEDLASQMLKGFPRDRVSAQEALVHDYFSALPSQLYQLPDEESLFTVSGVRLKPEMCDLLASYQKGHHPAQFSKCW

[22] = biological target: Megakaryocyte-associated tyrosine-protein kinase (Homo sapiens) (UniProt P42679); conditions: Compound concentration 1000.0 nM
[23] = biological target: Serine/threonine-protein kinase 32B (Homo sapiens) (UniProt Q9NY57); conditions: Compound concentration 1000.0 nM
[24] = biological target: Serine/threonine-protein kinase MRCK beta (Homo sapiens) (UniProt Q9Y5S2); conditions: Compound concentration 1000.0 nM
[25] = biological target: Ephrin type-B receptor 2 (Homo sapiens) (UniProt P29323); conditions: Compound concentration 1000.0 nM
[26] = biological target: Tyrosine-protein kinase ITK/TSK (Homo sapiens) (UniProt Q08881); conditions: Compound concentration 1000.0 nM
[27] = biological target: Serine/threonine-protein kinase SBK1 (Homo sapiens) (UniProt Q52WX2); conditions: Compound concentration 1000.0 nM
[28] = biological target: Casein kinase I isoform gamma-2 (Homo sapiens) (UniProt P78368); conditions: Compound concentration 1000.0 nM
Chain of Casein kinase I isoform gamma-2 (Homo sapiens) (P78368 whole entry, looked up, canonical isoform): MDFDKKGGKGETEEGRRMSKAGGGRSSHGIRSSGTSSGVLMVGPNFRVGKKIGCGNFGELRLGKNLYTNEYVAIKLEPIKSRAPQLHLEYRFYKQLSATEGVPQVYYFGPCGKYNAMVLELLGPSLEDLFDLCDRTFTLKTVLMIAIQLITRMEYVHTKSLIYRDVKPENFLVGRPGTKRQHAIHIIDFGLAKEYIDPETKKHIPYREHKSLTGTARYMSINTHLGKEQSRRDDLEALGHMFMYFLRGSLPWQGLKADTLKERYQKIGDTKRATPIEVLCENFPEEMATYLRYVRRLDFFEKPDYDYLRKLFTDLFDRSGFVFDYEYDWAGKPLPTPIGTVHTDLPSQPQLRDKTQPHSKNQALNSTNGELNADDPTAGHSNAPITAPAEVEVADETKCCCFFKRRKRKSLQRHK

[29] = biological target: Ribosomal protein S6 kinase alpha-4 (Homo sapiens) (UniProt O75676); conditions: Compound concentration 1000.0 nM
[30] = biological target: Ribosomal protein S6 kinase alpha-2 (Homo sapiens) (UniProt Q15349); conditions: Compound concentration 1000.0 nM
[31] = biological target: Calcium/calmodulin-dependent protein kinase type II subunit gamma (Homo sapiens) (UniProt Q13555); conditions: Compound concentration 1000.0 nM
[32] = test system: Proto-oncogene tyrosine-protein kinase receptor Ret (Homo sapiens), P07949 [M918T]; conditions: Compound concentration 1000.0 nM
[33] = biological target: 5'-AMP-activated protein kinase catalytic subunit alpha-2 (Homo sapiens) (UniProt P54646); conditions: Compound concentration 1000.0 nM
[34] = test system: Leucine-rich repeat serine/threonine-protein kinase 2 (Homo sapiens), Q5S007 [G2019S]; conditions: Compound concentration 1000.0 nM
[35] = biological target: Cyclin-dependent kinase 9 (Homo sapiens) (UniProt P50750); conditions: Compound concentration 1000.0 nM
[36] = biological target: Interferon-induced, double-stranded RNA-activated protein kinase (Homo sapiens) (UniProt P19525); conditions: Compound concentration 1000.0 nM
[37] = biological target: Myosin-IIIa (Homo sapiens) (UniProt Q8NEV4); conditions: Compound concentration 1000.0 nM
[38] = biological target: Calcium/calmodulin-dependent protein kinase type 1G (Homo sapiens) (UniProt Q96NX5); conditions: Compound concentration 1000.0 nM
[39] = biological target: Cyclin-dependent kinase-like 2 (Homo sapiens) (UniProt Q92772); conditions: Compound concentration 1000.0 nM
[40] = biological target: Serine/threonine-protein kinase Nek3 (Homo sapiens) (UniProt P51956); conditions: Compound concentration 1000.0 nM
[41] = biological target: Macrophage colony-stimulating factor 1 receptor (Homo sapiens) (UniProt P07333); conditions: Compound concentration 1000.0 nM
Chain of Macrophage colony-stimulating factor 1 receptor (Homo sapiens) (P07333 whole entry): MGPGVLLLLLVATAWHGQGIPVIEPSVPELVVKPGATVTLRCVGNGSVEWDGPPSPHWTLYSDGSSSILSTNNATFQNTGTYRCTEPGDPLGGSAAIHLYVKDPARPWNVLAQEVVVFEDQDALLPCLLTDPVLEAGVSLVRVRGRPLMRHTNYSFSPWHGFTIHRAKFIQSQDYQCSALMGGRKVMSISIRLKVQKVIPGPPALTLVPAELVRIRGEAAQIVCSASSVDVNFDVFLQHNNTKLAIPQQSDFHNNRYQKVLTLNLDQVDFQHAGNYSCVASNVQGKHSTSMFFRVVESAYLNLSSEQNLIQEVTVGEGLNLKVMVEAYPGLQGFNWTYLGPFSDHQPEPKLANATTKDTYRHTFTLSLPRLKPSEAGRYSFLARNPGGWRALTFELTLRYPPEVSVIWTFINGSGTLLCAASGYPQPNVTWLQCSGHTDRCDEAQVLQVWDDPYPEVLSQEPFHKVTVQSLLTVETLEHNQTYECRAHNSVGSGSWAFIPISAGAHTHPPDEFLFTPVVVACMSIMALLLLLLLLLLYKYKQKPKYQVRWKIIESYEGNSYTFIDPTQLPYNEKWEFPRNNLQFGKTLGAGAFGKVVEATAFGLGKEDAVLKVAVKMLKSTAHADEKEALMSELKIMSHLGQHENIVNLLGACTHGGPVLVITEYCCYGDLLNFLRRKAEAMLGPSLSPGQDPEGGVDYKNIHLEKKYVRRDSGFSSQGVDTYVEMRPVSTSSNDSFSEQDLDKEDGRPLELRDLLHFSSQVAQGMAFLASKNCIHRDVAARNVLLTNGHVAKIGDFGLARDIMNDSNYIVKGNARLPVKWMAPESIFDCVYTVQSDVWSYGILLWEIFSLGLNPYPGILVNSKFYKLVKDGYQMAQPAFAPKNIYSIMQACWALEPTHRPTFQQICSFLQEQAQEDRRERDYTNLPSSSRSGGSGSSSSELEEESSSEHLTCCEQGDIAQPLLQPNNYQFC

[42] = biological target: Calcium/calmodulin-dependent protein kinase type II subunit delta (Homo sapiens) (UniProt Q13557); conditions: Compound concentration 1000.0 nM
[43] = biological target: Tyrosine-protein kinase Blk (Homo sapiens) (UniProt P51451); conditions: Compound concentration 1000.0 nM
[44] = biological target: Inhibitor of nuclear factor kappa-B kinase subunit alpha (Homo sapiens) (UniProt O15111); conditions: Compound concentration 1000.0 nM

Chain of Kappa-type opioid receptor (P41145 whole entry): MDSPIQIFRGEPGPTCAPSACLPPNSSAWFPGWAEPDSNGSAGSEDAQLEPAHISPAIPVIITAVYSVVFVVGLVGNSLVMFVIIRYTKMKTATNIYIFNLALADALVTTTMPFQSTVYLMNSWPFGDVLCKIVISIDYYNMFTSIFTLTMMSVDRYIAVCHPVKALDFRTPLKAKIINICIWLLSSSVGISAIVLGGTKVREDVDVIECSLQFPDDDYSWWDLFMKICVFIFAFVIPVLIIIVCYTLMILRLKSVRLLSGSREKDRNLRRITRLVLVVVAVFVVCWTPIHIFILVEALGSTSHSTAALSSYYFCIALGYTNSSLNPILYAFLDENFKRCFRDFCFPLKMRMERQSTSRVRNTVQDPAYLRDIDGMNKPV
Chain of Sigma non-opioid intracellular receptor 1 (Q99720 whole entry): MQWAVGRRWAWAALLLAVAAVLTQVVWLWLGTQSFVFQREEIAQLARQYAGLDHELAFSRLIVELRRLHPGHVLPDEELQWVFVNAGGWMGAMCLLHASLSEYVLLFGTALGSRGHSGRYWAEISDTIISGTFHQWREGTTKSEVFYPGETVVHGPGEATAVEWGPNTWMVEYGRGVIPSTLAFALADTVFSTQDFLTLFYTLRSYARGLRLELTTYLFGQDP

**Q.** What does the source list for CC(C)(C)OC(=O)N1CCCC1CNC1CCC(c2cc(F)ccc2F)(S(=O)(=O)c2ccc(Cl)cc2)CC1 (stereo unspecified) [GSI-NC]?
**A.** Ki [1]: 0.223 µM; Ki ([2]; read-out: Ki): 3.3 µM; Ki ([2]; read-out: pKi (converted)): 3.31 µM; Ki [3]: 2.77 µM; Ki [4]: 10 µM; pKi [4]: 5

**Q.** Which results are given for O=S(=O)(NC1CCC(c2cc(F)ccc2F)(S(=O)(=O)c2ccc(Cl)cc2)CC1)C(F)(F)F (stereo unspecified) [MRK-560]?
**A.** residual activity [5]: 100%; residual activity [6]: 100%; residual activity [7]: 93%; residual activity [8]: 100%; residual activity [9]: 81%; residual activity [10]: 91%; residual activity [11]: 70%; residual activity [12]: 82%; residual activity [13]: 100%; residual activity [14]: 100%; residual activity [15]: 83%; residual activity [16]: 100%; residual activity [17]: 90%; residual activity [18]: 93%; residual activity [19]: 97%; residual activity [20]: 89%; residual activity [21]: 100%; residual activity [22]: 100%; residual activity [23]: 100%; residual activity [24]: 100%; residual activity [25]: 100%; residual activity [26]: 97%; residual activity [27]: 75%; residual activity [28]: 99%; residual activity [29]: 100%; residual activity [30]: 100%; residual activity [31]: 100%; residual activity [32]: 92%; residual activity [33]: 96%; residual activity [34]: 100%; residual activity [35]: 91%; residual activity [36]: 87%; residual activity [37]: 91%; residual activity [38]: 100%; residual activity [39]: 100%; residual activity [40]: 81%; residual activity [41]: 100%; residual activity [42]: 100%; residual activity [43]: 89%; residual activity [44]: 100%
